Laboratory results as given in patent US9308210B2, “Method for modulating canonical Wnt pathway using folate and inositol” (University of South Florida, priority 2009, dated 2016).
Where a name gives a salt, the structure may show the parent alone.

How the values were obtained:
[1] = test system: Wnt pathway-associated and lipid metabolism genes; experiment: Affymetrix microarray of E15.5 embryonic heart tissue after Li+ or HCys exposure with or without FA; assay type: in vivo, mouse
Source text: The inbred C57B16 mouse strain (Jackson Laboratories, Bar Harbor, Me.) was used throughout this study. It has become recognized that mouse strains can differ in their response to environmental factors (Andrikopoulos et al., 2005; Barnabei et al., 2010; Funkat et al., 2004). Thus, the mouse strain being used should be taken into consideration when comparing different studies. Morning of detection of the vaginal sperm plug was defined as embryonic day (E) 0.5. Timed-pregnant mice were randomly allocated to receive intraperitoneally (i.p.) either a single dose of 100 μl of 6.25 mg/ml of lithium chloride (Li+), as previously determined (Chen et al., 2008), 100 μl of 75 μM HCys (Han et al., 2009), or 100 μl of 0.9% physiological saline (control group). […]
As in the previous studies, animal chow was supplemented with 10.5 mg/kg folic acid (FA), a concentration that has been used in trial human population studies (Czeizel et al., 2013; Han et al., 2009). […] On ED 6.75 (at 5:30 PM) experimental pregnant females received Li+ or HCys by an i.p. injection that the inventors reported induces a high incidence of valve and heart defects as detected by echocardiography at mid-gestation on ED 15.5 (Han et al., 2009).
The inventors analyzed for gene misexpression in the embryonic heart on E15.5 of gestation, i.e., over a week after the acute exposures. […]

[2] = test system: Hex and Islet-1 (Isl1) gene expression; experiment: In situ hybridization of Hex and Isl1 in avian heart fields after Li, HCy or Wnt3A with or without FA; assay type: in vivo, chick
Experimental: In situ hybridizations on control and experimentally manipulated chick embryos were carried out using digoxigenin-labeled riboprobes with alkaline phosphatase detection (Linask et al., 2001). Images of whole-mounted chick embryos were taken with a Nikon DS-L2 camera unit. Probes for chick Hex were provided by Parker Antin, University of Arizona and probes for chick Islet-1 (Isl1) were provided by Thomas Jessell, Columbia University, NY.
Chick embryos (HH stages 3+/4) were incubated on agarose albumin supplemented with HCy (50 μM). Instead of giving a single injection in ovo, embryos were exposed to HCy for 8 hours in order to define the effect on early cardiac gene expression. Another group of embryos were exposed to HCy for 24 hours at which time the effects on gene expression were determined. To analyze the effects during the looping stages, incubation was stopped after between 22 and 24 hours. After the 8-hour incubation, Li and HCy suppressed Hex and Isl1 expression in the cardiogenic crescent (FIG. 5).
The inventors next analyzed whether FA rescues the downregulation of Hex and Isl1. Chick embryos were exposed to Li, HCy or Wnt3A, as above, with and without 10 μg/ml of FA; the experiments were terminated after either an 8-hour or 24-hour exposure period, at which time in situ hybridizations for gene expression were performed. After 8 hours of exposure, Li, HCy and Wnt3A all suppressed Hex (FIGS. 9D, G, J) and Isl1 (FIGS. 10D, G, J) compared with the control embryonic expression patterns (FIG. 9A; FIG. 10A). […] Thus, FA supplementation suppressed the potentiation of the inhibitory Wnt signaling, allowing for normal induction of Hex and Isl1 gene expression.

[3] = test system: Acadm and Acadl gene expression; experiment: RT-PCR of Acadm and Acadl in E7.5 embryos and E15.5 hearts; assay type: in vivo, mouse; settings: for Acadm expression: E15.5 hearts, versus control hearts
Source text: The gene expression data were validated by RT-PCR in mouse embryos at both E 7.5 (a half day after exposure) and at E15.5 and by in situ hybridization for tissue localization analyses. The inventors chose E 7.5 to determine early gestational changes in gene expression and to define whether these expression changes were maintained during pregnancy to E 15.5. Digoxigenin labeled probes and alkaline phosphatase secondary antibody detection for in situ hybridization were used (Roche, Inc., Indianapolis, Ind.).

[4] = test system: neutral lipid droplets in heart and placenta; experiment: Oil Red O staining of neutral lipid droplets in E15.5 heart and placenta; assay type: in vivo, mouse; settings: for ORO neutral lipid localization in the placenta: labyrinth and maternal decidua
Source text: Oil Red O (ORO), a fat soluble dye, was used to detect neutral lipids (triglycerides, diacylglycerols, and cholesterol esters) in cryosectioned E15.5 cardiac and placental tissues. The staining methodology was followed as published. This method estimates tissue lipid content and localization (Mehlem et al., 2013). Lipid droplets stain red and nuclei blue. Polar lipids (phospholipids, sphingolipids and ceramides) are not stained (Fowler and Greenspan, 1985).

Structure (SMILES)	changes in lipid metabolism gene expression with high FA supplementation ([1]; Li or HCys exposure, FA 10.5 mg/kg diet)	Hex and Isl1 gene expression with FA supplementation ([2]; embryos exposed to Li, HCy or Wnt3A, FA 10 μg/ml, 8 hours)	heart formation and Hex/Isl1 expression with FA supplementation ([2]; embryos exposed to Li, HCy or Wnt3A, FA 10 μg/ml, 24 hours)	Acadm expression [3]	ORO neutral lipid localization in the placenta [4]	Wnt pathway-associated gene expression ([1]; E15.5 hearts after acute exposure at E6.75)	Hex and Isl1 expression in the cardiogenic crescent ([2]; 8 hours of exposure, HH stages 3+/4)	Isl1 gene expression ([2]; by 24 hours of Li or HCy exposure)	Acadm/Acadl gene expression ([3]; E7.5, versus control embryos, FA from morning after conception)	ORO staining of neutral lipids in the heart [4]
Nc1nc2ncc(CNc3ccc(C(=O)N[C@@H](CCC(=O)O)C(=O)O)cc3)nc2c(=O)[nH]1 [FA, folic acid]	prevented	normalized gene expression patterns	normal beating hearts had formed	returned the expression close to control levels	more normal organization of labyrinth	–	–	–	–	–
N[C@H]1CCSC1=O [HCy, L-homocysteine thiolactone hydrochloride]	–	–	–	upregulation	patch-like neutral lipid localization	significantly misexpressed	suppressed	recovered	slightly down-regulated	did not alter ORO staining in the trabeculae
